US12679839B2, “Cyclin-dependent kinase 7 (CDK7) non-covalent inhibitors” (JANSSEN PHARMACEUTICA NV, priority 2020, dated 2026)

Tested on: not given
Assay: not given
Conditions: not given

Row | melting point [°C] | Structure (SMILES)
1 | 162.7 | C[C@@H]1Cc2cnc(NC3CCOCC3)nc2CN1C(=O)[C@H]1CCN(C)C[C@@H]1c1ccccc1 [Compound 47]

Tested on: RNA polymerase II Serine 5 phosphorylation (Rpb1 CTD), downstream substrate of CDK7
Assay: Imaging-based cellular RNA PolII Ser5 phosphorylation assay in A549 cells
Format: cell-based, human
Conditions: Homo sapiens, A549, 3 h, challenged with compound for 3 hours, read-out: pRNA polII Ser5 (A549) pIC50 (converted)
Procedure, shortened: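 A549 cells seeded 20 h in DMEM with 1% FBS, then exposed to compound for 3 h at 37 °C; fixed, methanol-permeabilized and immunostained for phospho-Rpb1 CTD Ser5, read by automated imaging. Signal normalized to DMSO (high) and 10 μM LDC4297 (low) controls; IC50 from four-parameter fit of % control vs concentration.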

Row | Structure (SMILES) | IC50 [µM]
2 | CO[C@H]1CC[C@H](Nc2ncc3c(n2)CN(C(=O)[C@H]2CCN(C)C[C@@H]2c2ccccc2)[C@H]2C[C@@H]32)CC1 [Compound 201] | ~0.0195
3 | C[C@H]1Cc2cnc(NC3(c4ccccc4)COC3)cc2CN1C(=O)[C@H]1CCN(C)C[C@@H]1c1ccccc1 (single isomer, unassigned) [Compound 175] | 0.166
4 | C[C@@H]1Cc2cnc(NC3CCN(S(C)(=O)=O)CC3)nc2CN1C(=O)N1CCN(C)C[C@@H]1c1ccccc1 [Compound 209] | 0.209
5 | C[C@@H]1Cc2cnc(NCc3ccn(C)n3)nc2CN1C(=O)[C@H]1CCN(C)C[C@@H]1c1cccc(OC(F)(F)F)c1 (relative stereo) [Compound 128] | 0.102
6 | C[C@@H]1Cc2cnc(NC3CCS(=O)(=O)CC3)nc2CN1C(=O)N1CCN(C)C[C@@H]1c1ccccc1 [Compound 214] | 3.55
7 | Cc1cccc([C@H]2CN(C)CC[C@@H]2C(=O)N2Cc3nc(NC4CCOCC4)ncc3C[C@H]2C)c1 [Compound 93] | ~0.0676
8 | C[C@@H]1Cc2cnc(NCc3cc(C(F)F)n(C)n3)nc2CN1C(=O)[C@H]1CCN(C)C[C@@H]1c1ccccc1 [Compound 56] | 5.13
9 | Cc1ccc([C@@H]2CN(C)CC[C@H]2C(=O)N2Cc3nc(NC4CCOCC4)ncc3C[C@H]2C)cn1 (relative stereo) [Compound 108] | 1.7
10 | C[C@H]1Cc2cnc(NC3CCOCC3)nc2CN1C(=O)N1CCN(C)C[C@H]1c1cccc(F)c1 (relative stereo) [Compound 212] | 0.182
11 | C[C@H]1Cc2cnc(NCc3ccn(C)n3)cc2CN1C(=O)[C@H]1CCN(C)C[C@@H]1c1ccccc1 (relative stereo) [Compound 174] | 0.0355
12 | C[C@@H]1Cc2cnc(NC3CCN(S(=O)(=O)C4CC4)CC3)nc2CN1C(=O)N1CCN(C)C[C@@H]1c1ccccc1 [Compound 210] | 0.11
13 | C[C@H]1Cc2cnc(Nc3cnn(C)c3)cc2CN1C(=O)[C@H]1CCN(C)C[C@@H]1c1ccccc1 (relative stereo) [Compound 176] | 0.38
14 | CO[C@H]1CC[C@H](Nc2cc3c(cn2)C[C@H](C)N(C(=O)[C@H]2CCN(C)C[C@@H]2c2cccc(C)c2)C3)CC1 [Compound 177c] | ~0.0977
15 | Cc1cccc([C@H]2CN(C)CC[C@@H]2C(=O)N2Cc3nc(Nc4cnn(C)c4)ncc3[C@@H]3C[C@@H]32)c1 (relative stereo) [Compound 203] | 0.148
16 | CN1CC[C@H](C(=O)N2Cc3nc(NCc4ccn(C)n4)ncc3CC2(C)C)[C@@H](c2ccccc2)C1 (single isomer, unassigned) [Compound 191] | ~4.27
17 | CC(C)N1CCN(C(=O)N2Cc3nc(NC4CCOCC4)ncc3C[C@H]2C)[C@@H](c2ccccc2)C1 [Compound 206] | 0.234
18 | CN1CC[C@H](C(=O)N2Cc3nc(Nc4cnn(C)c4)ncc3[C@@H]3C[C@@H]32)[C@@H](c2ccccc2)C1 [Compound 200] | 0.324
19 | Cc1cccc([C@H]2CN(C(C)C)CC[C@@H]2C(=O)N2Cc3nc(NC4CCOCC4)ncc3C[C@H]2C)c1 [Compound 166] | ~0.0513
20 | CO[C@H]1CC[C@H](Nc2ncc3c(n2)CN(C(=O)[C@H]2CCN(C)C[C@@H]2c2ccccc2)C2(CC2)C3)CC1 [Compound 192] | 2.88
21 | C[C@@H]1Cc2cnc(Nc3cnn(CC(C)(C)O)c3)nc2CN1C(=O)[C@H]1CCN(C)C[C@@H]1c1ccccc1 [Compound 74] | 0.178
22 | C[C@@H]1Cc2cnc(NC3CCN(S(=O)(=O)N(C)C)CC3)nc2CN1C(=O)N1CCN(C)C[C@@H]1c1ccccc1 [Compound 211] | 0.724
23 | C[C@@H]1Cc2cnc(NC3CCOCC3)nc2CN1C(=O)N1CCN(C)C[C@@H]1c1ccccc1 [Compound 204a] | 0.269
24 | C[C@@H]1c2nc(NC3CCOCC3)ncc2[C@@H](C)CN1C(=O)[C@H]1CCN(C)C[C@@H]1c1ccccc1 [Compound 180a] | ~0.0324
25 | Cc1cccc([C@H]2CN(C)CC[C@@H]2C(=O)N2Cc3nc(Nc4cnn(C)c4)ncc3C[C@H]2C)c1 (relative stereo) [Compound 126] | ~0.00389

The remaining lines, values ahead:

Row | IC50 [µM] | Structure (SMILES)
26 | 0.0229 | CCn1ccc(CNc2ncc3c(n2)CN(C(=O)[C@H]2CCN(C)C[C@@H]2c2ccccc2)[C@H](C)C3)n1 [Compound 58]
27 | 0.0724 | Cc1ccc(CNc2ncc3c(n2)CN(C(=O)[C@H]2CCN(C)C[C@@H]2c2ccccc2)[C@H](C)C3)o1 [Compound 50]
28 | ~0.0282 | CC(C)n1ccc(CNc2ncc3c(n2)CN(C(=O)[C@H]2CCN(C)C[C@@H]2c2ccccc2)[C@H](C)C3)n1 [Compound 66]
29 | 2.95 | C[C@@H]1Cc2cnc(NCc3cnn(C)c3)nc2CN1C(=O)[C@H]1CCN(C)C[C@@H]1c1ccccc1 [Compound 57]
30 | 0.316 | C[C@@H]1Cc2cnc(Nc3cnn4c3CCCC4)nc2CN1C(=O)[C@H]1CCN(C)C[C@@H]1c1ccccc1 [Compound 77]
31 | 1.32 | C[C@@H]1Cc2cnc(NCc3cc[nH]n3)nc2CN1C(=O)[C@H]1CCN(C)C[C@@H]1c1ccccc1 [Compound 51]
32 | ~0.0575 | Cc1cc(Nc2ncc3c(n2)CN(C(=O)[C@H]2CCN(C)C[C@@H]2c2ccccc2)[C@H](C)C3)ccn1 [Compound 78]
33 | ~0.0339 | C[C@@H]1Cc2cnc(N[C@H]3CC[C@H](C)CC3)nc2CN1C(=O)[C@H]1CCN(C)C[C@@H]1c1ccccc1 [Compound 13]
34 | 0.0933 | C[C@@H]1Cc2cnc(N[C@H]3CC[C@H](O)CC3)nc2CN1C(=O)[C@H]1CCN(C)C[C@@H]1c1ccccc1 [Compound 12]
35 | 0.12 | C[C@@H]1Cc2cnc(N[C@@H](CO)c3ccccc3)nc2CN1C(=O)[C@H]1CCN(C)C[C@@H]1c1ccccc1 [Compound 71]
36 | 0.0692 | C[C@@H]1Cc2cnc(N[C@@H]3CCOC4(CCC4)C3)nc2CN1C(=O)[C@H]1CCN(C)C[C@@H]1c1ccccc1 (relative stereo) [Compound 8]
37 | ~0.0708 | C[C@@H]1Cc2cnc(NC3CCOCC3)nc2CN1C(=O)[C@H]1CCN(C)C[C@@H]1c1ccccc1 [Compound 47]
38 | ~0.0468 | C[C@@H]1Cc2cnc(Nc3cnn(C)c3)nc2CN1C(=O)[C@H]1CCN(C)C[C@@H]1c1ccccc1 [Compound 82]
39 | 4.47 | C[C@H](Nc1ncc2c(n1)CN(C(=O)[C@H]1CCN(C)C[C@@H]1c1ccccc1)[C@H](C)C2)c1ccn(C)n1 (single isomer, unassigned) [Compound 55]
40 | 6.61 | Cc1cc(CNc2ncc3c(n2)CN(C(=O)[C@H]2CCN(C)C[C@@H]2c2ccccc2)[C@H](C)C3)nn1C [Compound 65]
41 | 2.45 | Cc1ncc(CNc2ncc3c(n2)CN(C(=O)[C@H]2CCN(C)C[C@@H]2c2ccccc2)[C@H](C)C3)[nH]1 [Compound 52]
42 | 3.09 | C[C@@H]1Cc2cnc(NC3CCS(=O)(=O)CC3)nc2CN1C(=O)[C@H]1CCN(C)C[C@@H]1c1ccccc1 [Compound 44]
43 | ~0.0339 | CO[C@H]1CC[C@H](Nc2ncc3c(n2)CN(C(=O)[C@H]2CCN(C)C[C@@H]2c2ccccc2)[C@H](C)C3)CC1 [Compound 37]
44 | 0.437 | C[C@@H]1Cc2cnc(NC3CCN(CC(F)(F)F)CC3)nc2CN1C(=O)[C@H]1CCN(C)C[C@@H]1c1ccccc1 [Compound 45]
45 | > 10 | C[C@@H]1Cc2cnc(NCC3CCS(=O)(=O)C3)nc2CN1C(=O)[C@H]1CCN(C)C[C@@H]1c1ccccc1 (some centres unmarked) [Compound 49]
46 | 5.01 | C[C@@H]1Cc2cnc(NC(C)(C)c3cnn(C)c3)nc2CN1C(=O)[C@H]1CCN(C)C[C@@H]1c1ccccc1 [Compound 90]
47 | 0.0603 | C[C@@H]1Cc2cnc(NC3CCC(OCC4CC4)CC3)nc2CN1C(=O)[C@H]1CCN(C)C[C@@H]1c1ccccc1 (some centres unmarked) [Compound 3]
48 | 0.148 | [2H]C([2H])(Nc1ncc2c(n1)CN(C(=O)[C@H]1CCN(C)C[C@@H]1c1ccccc1)[C@H](C)C2)c1ccccc1 [Compound 70]
49 | 0.309 | C[C@@H]1Cc2cnc(N[C@H]3CCOC4(CCC4)C3)nc2CN1C(=O)[C@H]1CCN(C)C[C@@H]1c1ccccc1 (relative stereo) [Compound 9]
50 | 0.912 | Cc1cn(C)nc1CNc1ncc2c(n1)CN(C(=O)[C@H]1CCN(C)C[C@@H]1c1ccccc1)[C@H](C)C2 [Compound 61]
51 | ~0.0525 | C[C@@H]1Cc2cnc(N[C@@H]3CCOC(C)(C)C3)nc2CN1C(=O)[C@H]1CCN(C)C[C@@H]1c1ccccc1 (relative stereo) [Compound 40]
52 | 0.0126 | C[C@@H]1Cc2cnc(NC3Cc4ccccc4C3)nc2CN1C(=O)[C@H]1CCN(C)C[C@@H]1c1ccccc1 [Compound 29]
53 | 0.537 | C[C@@H]1Cc2cnc(NCc3ccccc3)nc2CN1C(=O)[C@H]1CCN(CC2COC2)C[C@@H]1c1ccccc1 (single isomer, unassigned) [Compound 155]
54 | 0.123 | C[C@@H]1Cc2cnc(N[C@H](C)c3ccn(C)n3)nc2CN1C(=O)[C@H]1CCN(C)C[C@@H]1c1ccccc1 (single isomer, unassigned) [Compound 54]
55 | 0.0575 | C[C@@H]1Cc2cnc(Nc3ccnc(C(F)F)c3)nc2CN1C(=O)[C@H]1CCN(C)C[C@@H]1c1ccccc1 [Compound 75]

Same assay, conditions: challenged with compound for 3 hours

Row | pRNA polII Ser5 (A549) pIC50 | Structure (SMILES)
56 | 6.98 | CO[C@H]1CC[C@H](Nc2cc3c(cn2)C[C@H](C)N(C(=O)[C@@H]2CCN(C)C[C@H]2c2cccc(C)c2)C3)CC1 [Compound 177a]
